The values below come from patent publication US20080207527A1, “Bicyclic Compounds Which Inhibit Beta-Secretase Activity and Methods of Use Thereof” (CoMentis, Inc., priority 2004, published 2008).

One assay concerns the target memapsin 2 (Homo sapiens, UniProt P56817). The assay can be described thus: Inhibition of memapsin 2 beta-secretase activity toward fluorogenic substrate FS-2. Type of assay: biochemical. The note with it: pH 4, 37° C., 20 minutes pre-incubation, read-out: M2 Ki. In outline: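 Enzyme pre-incubated with compound 20 min at pH 4, 37 °C, then fluorogenic substrate FS-2 added. Inhibition derived from rate of fluorescence increase from peptide hydrolysis.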

The target of a further assay is Cathepsin D (Homo sapiens, UniProt P07339). As to the kind of experiment: Inhibition of cathepsin D activity (substrate peptide hydrolysis, MALDI-TOF). Type of assay: biochemical. The note with it: pH 4.1, 37 degrees C., read-out: Cath D Ki.
Cathepsin D, sequence (P07339 65-412, species assumed): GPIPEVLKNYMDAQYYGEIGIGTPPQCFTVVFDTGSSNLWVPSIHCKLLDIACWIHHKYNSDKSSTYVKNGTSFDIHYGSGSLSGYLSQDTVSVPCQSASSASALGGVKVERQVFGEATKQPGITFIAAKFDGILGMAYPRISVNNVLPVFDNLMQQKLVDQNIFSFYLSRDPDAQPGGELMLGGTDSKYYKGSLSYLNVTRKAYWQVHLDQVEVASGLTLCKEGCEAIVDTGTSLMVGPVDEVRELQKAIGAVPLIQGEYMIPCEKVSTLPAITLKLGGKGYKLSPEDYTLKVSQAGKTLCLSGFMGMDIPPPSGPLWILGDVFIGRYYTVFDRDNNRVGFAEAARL
For another assay, the target named is T1, memapsin 1 (Homo sapiens, UniProt Q9Y5Z0).
T1 sequence (Q9Y5Z0 63-518): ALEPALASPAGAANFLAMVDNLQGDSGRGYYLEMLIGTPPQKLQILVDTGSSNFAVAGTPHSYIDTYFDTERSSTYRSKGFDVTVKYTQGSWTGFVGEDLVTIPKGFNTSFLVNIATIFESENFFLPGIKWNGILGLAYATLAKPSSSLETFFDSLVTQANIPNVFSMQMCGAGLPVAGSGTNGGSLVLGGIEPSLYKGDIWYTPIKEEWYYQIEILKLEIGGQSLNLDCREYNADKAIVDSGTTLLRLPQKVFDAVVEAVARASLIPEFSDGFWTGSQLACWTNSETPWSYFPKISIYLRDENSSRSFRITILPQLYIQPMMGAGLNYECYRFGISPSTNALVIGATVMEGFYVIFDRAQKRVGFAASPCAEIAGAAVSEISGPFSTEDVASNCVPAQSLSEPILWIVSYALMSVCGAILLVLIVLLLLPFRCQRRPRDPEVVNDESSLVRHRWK
As to the kind of experiment: Inhibition of memapsin 1 beta-secretase activity (substrate peptide hydrolysis, MALDI-TOF). Format: biochemical. The note with it: pH 4.1, 37 degrees C., read-out: M1 Ki.

For the next assay, the system named is Aβ production. As to the kind of experiment: Cellular Aβ IC50 determination (Aβ40 sandwich ELISA). Format: cell-based. The conditions noted are these: Cricetulus griseus, Chinese hamster ovary cells over-expressing human APP695 with London and Swedish mutations, 24 h. In outline: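 CHO cells over-expressing human APP695 (London and Swedish mutations) were treated 48 h after seeding with serially diluted compound, top final concentration near 4 μM (0.4% DMSO), for 24 h at 37 °C, 5% CO2. Aβ40 in medium was measured by sandwich ELISA; values relative to control were fit to a 4-parameter IC50 model.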
In general terms: In an ELISA, binding on a coated surface is turned into a signal by an enzyme label.

memapsin 2, sequence (P56817 46-501): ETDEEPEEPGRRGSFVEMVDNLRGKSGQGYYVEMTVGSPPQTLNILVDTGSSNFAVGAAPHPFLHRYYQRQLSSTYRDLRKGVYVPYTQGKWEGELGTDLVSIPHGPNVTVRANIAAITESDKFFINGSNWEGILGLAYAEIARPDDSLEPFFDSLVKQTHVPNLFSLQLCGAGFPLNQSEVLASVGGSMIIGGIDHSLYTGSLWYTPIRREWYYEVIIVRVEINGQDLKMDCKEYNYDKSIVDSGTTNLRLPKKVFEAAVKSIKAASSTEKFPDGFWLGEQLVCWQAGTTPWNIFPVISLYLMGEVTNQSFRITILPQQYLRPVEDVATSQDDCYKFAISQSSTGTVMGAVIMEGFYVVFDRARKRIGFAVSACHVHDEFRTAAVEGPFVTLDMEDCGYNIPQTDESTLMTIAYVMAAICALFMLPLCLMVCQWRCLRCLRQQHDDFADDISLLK

Turning to `CCCN(Cc1nc(C)cs1)C(=O)c1cccc(C(=O)NC(CC(C)C)C(O)CC(C)C(=O)NC(C(=O)NCC(C)C)C(C)C)c1` (stereo not drawn) [N1-(5-hydroxy-8-(1-(isobutylamino)-3-methyl-1-oxobutan-2-ylamino)-2,7-dimethyl-8-oxooctan-4-yl)-N3-((4-methylthiazol-2-yl)methyl)-N3-propylisophthalamide], the inhibition constant (Ki) on memapsin 2 was < 405 nM; on Cathepsin D it was < 405 nM; at memapsin 1 it was 405 to 2000 nM. In the assay with Aβ production, this compound registered a concentration for half-maximal inhibition (IC50) of 10000 to 20000 nM.

For `CC(C)CNC(=O)C(NC(=O)C(C)CC(O)C(CC(C)C)NC(=O)c1cccc(C(=O)N(C)Cc2cnccn2)c1)C(C)C` (stereo not drawn) [N1-(5-hydroxy-8-(1-(isobutylamino)-3-methyl-1-oxobutan-2-ylamino)-2,7-dimethyl-8-oxooctan-4-yl)-N3-methyl-N3-(pyrazin-2-ylmethyl)isophthalamide], the Ki at memapsin 2 is 405 to 2000 nM; at Cathepsin D, < 405 nM; on memapsin 1, 405 to 2000 nM. Besides, the IC50 in the assay on Aβ production is > 20000 nM.

For `CC(C)CC(NC(=O)c1cc(C(=O)NC(C)c2ccccc2)cc(N(C)S(C)(=O)=O)c1)C(O)CC(C)C(=O)NC(C)c1ccccc1` (stereo not drawn) [N1-(5-hydroxy-2,7-dimethyl-8-oxo-8-(1-phenylethylamino)octan-4-yl)-5-(N-methylmethylsulfonamido)-N3-(1-phenylethyl)isophthalamide], the Ki was 405 to 2000 nM on memapsin 2, 2000 to 5000 nM on Cathepsin D and > 5000 nM on memapsin 1. The compound further displayed an IC50 in the assay on Aβ production of 10000 to 20000 nM.

As for `CC(C)CC(NC(=O)c1cc(C(=O)NC(C)c2ccccc2)cc(N(C)S(C)(=O)=O)c1)C(O)CC(C)C(=O)NC(C(=O)NCc1cccnc1)C(C)C` (stereo not drawn) [N1-(5-hydroxy-2,7-dimethyl-8-(3-methyl-1-oxo-1-(pyridin-3-ylmethylamino)butan-2-ylamino)-8-oxooctan-4-yl)-5-(N-methylmethylsulfonamido)-N3-(1-phenylethyl)isophthalamide], the inhibitory constant (Ki) at memapsin 2 is < 405 nM; at Cathepsin D, 405 to 2000 nM; at memapsin 1, < 405 nM. Also, the concentration for half-maximal inhibition (IC50) in the assay with Aβ production is < 5000 nM.

On to `CC(C)CC(NC(=O)c1cc(C(=O)NC(C)c2ccccc2)cc(N(C)S(C)(=O)=O)c1)C(O)CC(C)C(=O)NC(C(=O)NCC1CCCN1C)C(C)C` (stereo not drawn) [N1-(5-hydroxy-2,7-dimethyl-8-(3-methyl-1-((1-methylpyrrolidin-2-yl)methylamino)-1-oxobutan-2-ylamino)-8-oxooctan-4-yl)-5-(N-methylmethylsulfonamido)-N3-(1-phenylethyl)isophthalamide], for which the results for the Ki on memapsin 2, at Cathepsin D and on memapsin 1 were < 405 nM, 405 to 2000 nM and 405 to 2000 nM, respectively. Also, the IC50 in the assay on Aβ production is < 5000 nM.

`CCN1CCCC1CNC(=O)C(NC(=O)C(C)CC(O)C(CC(C)C)NC(=O)c1cc(C(=O)NC(C)c2ccccc2)cc(N(C)S(C)(=O)=O)c1)C(C)C` (stereo not drawn) [N1-(8-(1-((1-ethylpyrrolidin-2-yl)methylamino)-3-methyl-1-oxobutan-2-ylamino)-5-hydroxy-2,7-dimethyl-8-oxooctan-4-yl)-5-(N-methylmethylsulfonamido)-N3-(1-phenylethyl)isophthalamide]: the inhibition constant (Ki) on memapsin 2, at Cathepsin D and on memapsin 1 was < 405 nM in each case. Further, in the assay with Aβ production, the IC50 was < 5000 nM.

As usually defined, the Ki is a dissociation constant, usually derived from enzyme kinetics or from competition with a known ligand. For orientation: IC50 means the concentration that gives 50% inhibition.
